Consider 17 compounds from ChEMBL document CHEMBL1145755, “Design, synthesis and biological activity of novel dimethyl-[2-[6-substituted-indol-1-yl]-ethyl]-amine as potent, selective, and orally-bioavailable 5-HT(1D) agonists” (Bioorg Med Chem Lett, 2003).

Series [1] concerns the target T1, 5-hydroxytryptamine receptor 1D (Homo sapiens, UniProt P28221). The experiment in a line: Inhibition of [3H]5-HT binding to human 5-hydroxytryptamine 1D receptor expressed in CHO cells at 1 uM. It is filed as cell-based.
Series [2] has as its target T1, 5-hydroxytryptamine receptor 1D. The experiment in a line: Displacement of [3H]5-HT from human 5-hydroxytryptamine 1D receptor expressed in Chinese hamster ovary cells (CHO cells). Format: cell-based. (Loss of bound radioactivity is the signal in a displacement assay; it reports binding, not function.)
Series [3] has the same target. The experiment in a line: Selectivity of compound to human 5-HT1D receptor to that of human 5-HT1B receptor.
Series [4] addresses T2, 5-hydroxytryptamine receptor 1A (Homo sapiens) (UniProt P08908).
T2 sequence (whole entry): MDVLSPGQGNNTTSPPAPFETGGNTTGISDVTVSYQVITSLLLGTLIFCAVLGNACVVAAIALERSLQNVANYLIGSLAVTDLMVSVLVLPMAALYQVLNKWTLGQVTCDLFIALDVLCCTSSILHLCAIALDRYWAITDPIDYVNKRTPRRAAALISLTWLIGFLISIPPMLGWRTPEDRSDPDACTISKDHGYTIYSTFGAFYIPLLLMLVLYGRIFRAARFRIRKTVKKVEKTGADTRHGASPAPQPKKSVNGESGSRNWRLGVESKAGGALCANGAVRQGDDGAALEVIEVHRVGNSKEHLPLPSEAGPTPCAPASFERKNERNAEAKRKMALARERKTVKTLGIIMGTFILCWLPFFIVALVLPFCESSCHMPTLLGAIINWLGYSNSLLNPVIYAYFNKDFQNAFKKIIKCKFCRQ
Nature of the series: Inhibition of binding towards 5-hydroxytryptamine 1A receptor at 100 nM concentration.

For series [5], the target named is T1, 5-hydroxytryptamine receptor 1D. Nature of the series: Ability to inhibit forskolin-stimulated adenylate cyclase activity in Chinese hamster ovary (CHO) stable cell lines expressing human 5-hydroxytryptamine 1D receptor. Format: functional.
In series [6] the target is 5-hydroxytryptamine receptor 1B (Homo sapiens) (UniProt P28222). Nature of the series: Inhibition of binding towards 5-hydroxytryptamine 1B receptor at 100 nM concentration.
For series [7], the target named is 5-hydroxytryptamine receptor 2A (Homo sapiens) (UniProt P28223). The experiment in a line: Inhibition of binding towards 5-hydroxytryptamine 2A receptor at 100 nM concentration.
In series [8] the target is T1, 5-hydroxytryptamine receptor 1D. Nature of the series: Inhibition of binding towards 5-hydroxytryptamine 1D receptor at 100 nM concentration.
A short description of series [9]: Compound distribution in rat tissues was determined. It is filed as ADME, organism-based. The conditions noted are these: in vivo.
Series [10] is described as follows: Plasma clearance was determined in rat. Format: ADME, organism-based.
Series [11] concerns the target 5-hydroxytryptamine receptor 7 (Homo sapiens) (UniProt P34969). Nature of the series: Inhibition of binding towards 5-hydroxytryptamine 7 receptor at 100 nM concentration.
Series [12] can be described thus: Cmax in rat. It is filed as ADME, organism-based. The conditions noted are these: in vivo.
The nature of series [13]: Oral bioavailability in rat. Format: ADME, organism-based. The conditions noted are these: in vivo.
Series [14] concerns the target T3, 5-hydroxytryptamine receptor 2C (Homo sapiens) (UniProt P28335).
T3 sequence (whole entry): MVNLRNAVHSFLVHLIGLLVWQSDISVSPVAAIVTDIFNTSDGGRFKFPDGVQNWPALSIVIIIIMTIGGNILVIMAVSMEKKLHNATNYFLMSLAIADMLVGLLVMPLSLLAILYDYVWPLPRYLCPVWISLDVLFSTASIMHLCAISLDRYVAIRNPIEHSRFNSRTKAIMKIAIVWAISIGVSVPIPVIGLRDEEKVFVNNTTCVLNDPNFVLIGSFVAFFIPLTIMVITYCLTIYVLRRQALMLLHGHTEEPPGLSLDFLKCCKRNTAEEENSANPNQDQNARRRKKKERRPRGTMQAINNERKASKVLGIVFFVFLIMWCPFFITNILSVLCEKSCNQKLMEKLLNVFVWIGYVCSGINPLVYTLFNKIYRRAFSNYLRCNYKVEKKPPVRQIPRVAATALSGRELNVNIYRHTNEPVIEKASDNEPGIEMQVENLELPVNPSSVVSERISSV
The experiment in a line: Inhibition of binding towards 5-hydroxytryptamine 2C receptor at 100 nM concentration.

Series [15] addresses 5-hydroxytryptamine receptor 6 (Homo sapiens) (UniProt P50406). Nature of the series: Inhibition of binding towards 5-hydroxytryptamine 6 receptor at 100 nM concentration.
In series [16] the test system is Rattus norvegicus. The experiment in a line: Area under curve was determined after peroral administration in rat. The conditions noted are these: in vivo, po. Format: ADME, organism-based.
Series [17] has as its target Adrenergic receptor alpha-1 (Homo sapiens) (UniProt P35348+P25100+P35368). The experiment in a line: Inhibition of binding towards Alpha-1 adrenergic receptor at 100 nM concentration. It is filed as protein assay.
Series [18] has as its target D(3) dopamine receptor (Homo sapiens) (UniProt P35462). Nature of the series: Inhibition of binding towards dopamine 3 receptor at 100 nM concentration.
For series [19], the target named is T4, D(4) dopamine receptor (Homo sapiens) (UniProt P21917).
T4 sequence (whole entry): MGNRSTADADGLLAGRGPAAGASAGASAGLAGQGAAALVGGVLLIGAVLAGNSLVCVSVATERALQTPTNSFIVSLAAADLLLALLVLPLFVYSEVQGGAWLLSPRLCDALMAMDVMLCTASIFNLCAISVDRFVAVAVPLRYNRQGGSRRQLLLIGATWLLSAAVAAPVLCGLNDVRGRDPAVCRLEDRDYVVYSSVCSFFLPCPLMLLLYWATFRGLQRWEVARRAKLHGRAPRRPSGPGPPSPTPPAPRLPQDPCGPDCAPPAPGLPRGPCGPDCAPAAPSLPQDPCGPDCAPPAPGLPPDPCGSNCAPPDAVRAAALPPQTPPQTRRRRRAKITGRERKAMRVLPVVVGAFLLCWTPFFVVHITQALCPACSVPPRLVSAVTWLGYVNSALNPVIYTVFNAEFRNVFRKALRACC
The experiment in a line: Inhibition of binding towards dopamine 4 receptor at 100 nM concentration.

In series [20] the target is D(1A) dopamine receptor (Homo sapiens) (UniProt P21728). Nature of the series: Inhibition of binding towards dopamine 1 receptor at 100 nM concentration.
Series [21] has as its target D(2) dopamine receptor (Homo sapiens) (UniProt P14416). Nature of the series: Inhibition of binding towards dopamine 2 receptor at 100 nM concentration.
Series [22] concerns the target D(1B) dopamine receptor (Homo sapiens) (UniProt P21918). Nature of the series: Inhibition of binding towards dopamine 5 receptor at 100 nM concentration.
A further series is filed under the species Homo sapiens. The experiment in a line: In vitro metabolic stability of compound after 30 min incubation in the presence of human liver microsomes. Format: functional. (In general: Liver microsomes are a subcellular fraction often used to study metabolism.)
Series [23] deals with Muscarinic acetylcholine receptors; M1 & M2 (Homo sapiens) (UniProt P11229+P08172). Nature of the series: Inhibition of binding towards muscarinic (M1+M2) receptor at 100 nM concentration. Format: protein assay.
The species named for series [24] is Rattus norvegicus. The experiment in a line: In vitro metabolic stability of compound after 30 min incubation in the presence of rat liver microsomes. It is filed as functional.
Series [25] in a line: Half period in rat after intravenous administration. It is filed as ADME, organism-based. The following applies: in vivo.

T1 sequence (P28221 whole entry): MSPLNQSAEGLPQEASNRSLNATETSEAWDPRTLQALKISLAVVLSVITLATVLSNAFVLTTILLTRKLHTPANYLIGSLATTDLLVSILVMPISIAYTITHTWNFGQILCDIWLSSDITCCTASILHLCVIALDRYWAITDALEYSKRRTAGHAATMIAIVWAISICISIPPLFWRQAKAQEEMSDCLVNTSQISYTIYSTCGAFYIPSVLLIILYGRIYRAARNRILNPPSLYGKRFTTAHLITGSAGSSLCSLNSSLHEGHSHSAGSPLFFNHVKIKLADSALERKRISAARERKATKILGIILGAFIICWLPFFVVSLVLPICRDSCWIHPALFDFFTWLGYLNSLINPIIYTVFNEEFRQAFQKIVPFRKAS
D(2) dopamine receptor (Homo sapiens), sequence (P14416 whole entry): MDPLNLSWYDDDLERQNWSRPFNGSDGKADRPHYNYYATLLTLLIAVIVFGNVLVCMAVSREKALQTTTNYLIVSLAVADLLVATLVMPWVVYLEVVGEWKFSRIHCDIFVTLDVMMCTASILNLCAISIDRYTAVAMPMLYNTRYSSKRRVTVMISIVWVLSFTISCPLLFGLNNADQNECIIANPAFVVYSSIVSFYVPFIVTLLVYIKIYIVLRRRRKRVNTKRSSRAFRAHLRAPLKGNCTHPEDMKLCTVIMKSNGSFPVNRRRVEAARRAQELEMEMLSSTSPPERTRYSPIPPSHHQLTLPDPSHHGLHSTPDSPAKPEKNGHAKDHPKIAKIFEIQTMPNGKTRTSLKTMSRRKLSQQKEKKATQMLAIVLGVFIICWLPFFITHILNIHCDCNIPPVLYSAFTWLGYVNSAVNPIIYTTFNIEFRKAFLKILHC
D(3) dopamine receptor (Homo sapiens), sequence (P35462 whole entry): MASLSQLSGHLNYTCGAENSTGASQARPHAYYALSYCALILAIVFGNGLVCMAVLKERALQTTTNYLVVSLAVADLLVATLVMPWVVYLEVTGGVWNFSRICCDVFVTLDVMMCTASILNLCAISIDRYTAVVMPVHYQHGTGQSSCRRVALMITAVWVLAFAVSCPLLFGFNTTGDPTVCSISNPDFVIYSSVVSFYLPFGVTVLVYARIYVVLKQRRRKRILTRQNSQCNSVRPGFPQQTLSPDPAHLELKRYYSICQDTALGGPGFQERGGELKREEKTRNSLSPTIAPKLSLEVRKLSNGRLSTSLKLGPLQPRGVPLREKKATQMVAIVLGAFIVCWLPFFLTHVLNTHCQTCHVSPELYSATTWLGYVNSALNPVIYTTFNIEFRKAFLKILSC
D(1B) dopamine receptor (Homo sapiens), sequence (P21918 whole entry): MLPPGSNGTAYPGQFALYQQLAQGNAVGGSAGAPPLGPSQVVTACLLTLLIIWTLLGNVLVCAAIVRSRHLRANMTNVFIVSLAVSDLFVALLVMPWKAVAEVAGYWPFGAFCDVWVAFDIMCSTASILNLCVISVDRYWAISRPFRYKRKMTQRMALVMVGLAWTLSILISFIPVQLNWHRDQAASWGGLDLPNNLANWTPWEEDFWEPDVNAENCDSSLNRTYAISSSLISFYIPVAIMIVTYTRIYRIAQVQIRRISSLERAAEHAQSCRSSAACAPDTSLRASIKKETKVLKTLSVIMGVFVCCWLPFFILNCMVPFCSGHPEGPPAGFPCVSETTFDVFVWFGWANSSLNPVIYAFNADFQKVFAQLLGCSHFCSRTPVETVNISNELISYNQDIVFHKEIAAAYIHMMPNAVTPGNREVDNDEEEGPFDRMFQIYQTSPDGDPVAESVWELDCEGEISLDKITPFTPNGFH
5-hydroxytryptamine receptor 1B (Homo sapiens), sequence (P28222 whole entry): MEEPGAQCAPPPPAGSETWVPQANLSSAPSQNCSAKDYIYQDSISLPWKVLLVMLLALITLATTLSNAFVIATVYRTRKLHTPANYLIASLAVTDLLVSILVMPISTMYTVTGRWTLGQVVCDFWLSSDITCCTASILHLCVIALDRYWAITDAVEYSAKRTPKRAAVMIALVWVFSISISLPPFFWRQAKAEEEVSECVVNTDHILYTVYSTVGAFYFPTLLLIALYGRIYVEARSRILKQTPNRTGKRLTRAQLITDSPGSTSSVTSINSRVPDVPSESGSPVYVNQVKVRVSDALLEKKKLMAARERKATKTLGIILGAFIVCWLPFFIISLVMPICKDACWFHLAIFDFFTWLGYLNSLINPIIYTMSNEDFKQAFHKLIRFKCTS
5-hydroxytryptamine receptor 7 (Homo sapiens), sequence (P34969 whole entry): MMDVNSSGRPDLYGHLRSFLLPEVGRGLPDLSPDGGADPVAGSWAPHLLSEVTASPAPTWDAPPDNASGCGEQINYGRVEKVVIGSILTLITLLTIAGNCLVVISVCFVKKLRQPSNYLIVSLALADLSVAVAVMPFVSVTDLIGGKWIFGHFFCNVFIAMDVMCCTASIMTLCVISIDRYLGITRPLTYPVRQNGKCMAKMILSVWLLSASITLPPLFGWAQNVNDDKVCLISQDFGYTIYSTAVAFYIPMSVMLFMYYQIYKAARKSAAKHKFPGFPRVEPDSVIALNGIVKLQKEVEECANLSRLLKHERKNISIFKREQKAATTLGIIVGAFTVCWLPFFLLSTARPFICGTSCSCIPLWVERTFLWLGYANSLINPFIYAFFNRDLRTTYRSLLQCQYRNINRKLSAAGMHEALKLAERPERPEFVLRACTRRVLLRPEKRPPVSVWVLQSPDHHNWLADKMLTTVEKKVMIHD
5-hydroxytryptamine receptor 2A (Homo sapiens), sequence (P28223 whole entry): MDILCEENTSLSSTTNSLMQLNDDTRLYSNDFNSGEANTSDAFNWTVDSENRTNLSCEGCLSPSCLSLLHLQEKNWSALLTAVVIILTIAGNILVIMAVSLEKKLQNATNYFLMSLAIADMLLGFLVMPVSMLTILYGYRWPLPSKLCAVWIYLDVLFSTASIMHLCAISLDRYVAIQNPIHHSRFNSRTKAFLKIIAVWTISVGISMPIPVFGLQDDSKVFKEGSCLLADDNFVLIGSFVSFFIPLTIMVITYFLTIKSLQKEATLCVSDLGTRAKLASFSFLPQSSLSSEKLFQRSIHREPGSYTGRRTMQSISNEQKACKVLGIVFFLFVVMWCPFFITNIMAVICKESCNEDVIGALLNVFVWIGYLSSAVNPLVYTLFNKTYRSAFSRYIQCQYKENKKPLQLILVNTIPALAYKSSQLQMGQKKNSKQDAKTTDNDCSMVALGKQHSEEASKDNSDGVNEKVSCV
D(1A) dopamine receptor (Homo sapiens), sequence (P21728 whole entry): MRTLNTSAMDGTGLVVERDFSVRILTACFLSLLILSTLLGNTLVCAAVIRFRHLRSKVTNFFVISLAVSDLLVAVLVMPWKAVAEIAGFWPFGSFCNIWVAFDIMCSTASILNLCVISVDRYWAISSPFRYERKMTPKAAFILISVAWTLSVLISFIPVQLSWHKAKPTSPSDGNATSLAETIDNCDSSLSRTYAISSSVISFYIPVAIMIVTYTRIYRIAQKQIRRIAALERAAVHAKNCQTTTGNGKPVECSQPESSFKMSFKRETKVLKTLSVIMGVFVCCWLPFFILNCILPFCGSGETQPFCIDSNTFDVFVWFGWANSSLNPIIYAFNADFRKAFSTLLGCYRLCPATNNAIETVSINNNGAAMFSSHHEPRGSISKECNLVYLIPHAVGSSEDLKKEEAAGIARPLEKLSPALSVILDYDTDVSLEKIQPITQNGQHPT
5-hydroxytryptamine receptor 6 (Homo sapiens), sequence (P50406 whole entry): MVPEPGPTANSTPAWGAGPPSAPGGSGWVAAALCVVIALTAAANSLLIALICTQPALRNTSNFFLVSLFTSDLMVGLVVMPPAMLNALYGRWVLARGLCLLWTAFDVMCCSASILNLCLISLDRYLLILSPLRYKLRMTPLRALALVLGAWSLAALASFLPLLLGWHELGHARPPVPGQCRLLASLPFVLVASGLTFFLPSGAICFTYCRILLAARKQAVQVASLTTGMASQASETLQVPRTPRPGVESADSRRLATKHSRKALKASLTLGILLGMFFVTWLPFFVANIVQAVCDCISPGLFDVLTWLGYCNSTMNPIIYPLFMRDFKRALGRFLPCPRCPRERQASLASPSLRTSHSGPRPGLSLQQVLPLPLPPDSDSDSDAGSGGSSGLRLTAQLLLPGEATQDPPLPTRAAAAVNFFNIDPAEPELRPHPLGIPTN

Compound `CN(C)CCn1ccc2ccc(C3=CCSCC3)cc21` had an inhibition in [1] of 95%. This compound returned a Ki in series [2] of 22 nM. The Selectivity in series [3] amounted to 7.4.
As for `CN(C)CCn1ccc2ccc(C3CCSCC3)cc21`, the inhibition in series [1] came out at 99%. In series [2], this compound showed a Ki of 5.6 nM. Besides, the Selectivity in [3] is 48.
On to `OC[C@H](NC1CCN(CCCc2c[nH]c3ccc(-n4cnnc4)cc23)CC1)c1ccc(F)cc1`, for which the affinity in series [2] corresponds to a Ki of 0.9 nM.
Turning to `CN(C)CCn1ccc2ccc(-c3ccc(C(F)(F)F)cc3)cc21`, in [1], the inhibition came out at 86%.
`CN(C)CCn1ccc2ccc(-c3ccc4ccccc4c3)cc21` registered an inhibition in series [1] of 79%. In series [2], the Ki was determined as 57 nM. In series [3], the Selectivity was found to be 5.5.
For `CN(C)CCn1ccc2ccc(-c3ccsc3)cc21`, in that order: 99%, 7.3 nM and 22.
Turning to `CN(C)CCn1ccc2ccc(C3=CCN(C)CC3)cc21`, the inhibition in series [1] stood at 84%.
For `CN(C)CCn1ccc2ccc(C3(O)CCSCC3)cc21`, the inhibition came out at 27% in [4]; 46% in series [6]; 99% in series [1]; 0% in series [7]; 96% in series [8]; 5% in series [11]. The inhibition turned out to be 4% in [14]; 0% in series [15]; 1% in series [17]; 0% in series [18]; 2% in series [19]; 0% in series [20]. Moreover, the inhibition in series [21] came out at 0%; in series [22], 1%; in series [23] it was 0%. The compound further gave an EC50 in series [5] of 0.3 nM. For the same compound, in [2], affinity was put at a Ki of 2 nM. Further, the Vd in series [9] was determined as 8.61 L/kg. Besides, the clearance in [10] came to 74 mL/min/kg. The Cmax in series [12] came out at 538 ng/mL. The compound also yielded a bioavailability in [13] of 51.1%. For the same compound, the AUC in the series on Rattus norvegicus [16] is 21265 ng·mL/kg. The values for the Remaining in the series filed under Homo sapiens and in the series filed under Rattus norvegicus [24] were 70% and 79%, respectively. Moreover, the Selectivity in [3] worked out at 57. In addition, the half-life in series [25] was 90 min.
On to `CN(C)CCn1ccc2ccc(C3(O)CCOCC3)cc21`, for which affinity in series [2] was put at a Ki of 3.4 nM. Further, the Selectivity in [3] was 48.
`CN(C)CCn1ccc2ccc(C3(O)CCN(C)CC3)cc21` returned an inhibition in [1] of 44%.
In series [1], `CN(C)CCn1ccc2ccc(C3CCN(C)CC3)cc21` showed an inhibition of 74%.
On to `CN(C)CCn1ccc2ccc(C3CCOCC3)cc21`, for which the affinity in [2], expressed as Ki, was 3.7 nM.
Regarding `CN(C)CCn1ccc2ccc(N3CCSCC3)cc21`, the inhibition in [1] was found to be 88%.
With `CN(C)CCn1ccc2ccc(C3=CCOCC3)cc21`, the Ki in series [2] was 32 nM. Moreover, the Selectivity in [3] was 28.
On to `CNC(=O)c1ccc2c(c1)CCO[C@H]2CCN1CCN(c2ccc(C(N)=O)cc2)CC1`, for which the Ki in [2] came to 4.6 nM.
The compound `CN(C)CCn1ccc2ccc(-c3cccnc3)cc21` had an inhibition in series [1] of 98%. In addition, in [2], the affinity, expressed as Ki, was 1.4 nM. For the same compound, the Selectivity in series [3] came to 17.
For `CN(C)CCn1ccc2ccc(N3CCOCC3)cc21`, in series [1], the inhibition amounted to 85%.

As usually defined, the inhibition is the drop in the measured response relative to a control, in per cent. One may read the Ki as the equilibrium dissociation constant of an inhibitor or competing ligand from its target. A word on the EC50: it is the concentration needed to bring the measured effect to its halfway point. By Vd is commonly meant a proportionality between amount in the body and measured concentration, not a real space. A low value points to little distribution into tissue. The clearance is a measure of how efficiently the substance is removed, as volume per time. A low value points to inefficient removal. The Cmax is the maximum level reached in the sampled fluid or tissue. A word on the bioavailability: it is the share of a dose that reaches the circulation, judged against a reference dose that is usually intravenous. A lower bioavailability goes with poor availability. What is called half-life is the time needed for the level to fall by half in the phase considered.
